Reference: PMC5762315, “Inhibition of polo-like kinase 4 (PLK4): a new therapeutic option for rhabdoid tumors and pediatric medulloblastoma” (Oncotarget, 2017)
pIC50: −log10 of the molar value. Values joined by “and” are separate entries in the source; they are usually repeats but may differ in a detail not shown here. Equal values may be shown once.

Key:
[1] = tested on: PLK4 mRNA expression in MON rhabdoid cells; experiment: qRT-PCR for PLK4 transcript in treated MON cells; type: cell-based, human; details: 10, 50, 100 and 500nM for 24, 48 and 72 hours
Protocol: The expression of PLK4 (Hs00179514_m1) in each cell line was verified by TaqMan GE assays (Thermo Fisher Scientific, USA) using the housekeeping gene GAPDH (Hs02758991_g1) as reference. Total RNA (2μg) was used to make cDNA using the Applied Biosystems High Capacity RNA-to-cDNA kit (Thermo Fisher Scientific). Reactions were performed in triplicate with adequate positive and negative controls. The normalized expression levels were calculated by the ΔΔCt method using the housekeeping gene and a pool of all samples as calibrator.

various kinases [2] = biological target: various kinases (Homo sapiens, UniProt P43405); experiment: biochemical; type: biochemical; details: kinase SYK; ZLYTE
various kinases [3] = biological target: various kinases (Homo sapiens, UniProt P07949, Y791F); experiment: biochemical; type: biochemical; details: kinase RET Y791F; ZLYTE
Sequence of various kinases (Homo sapiens, UniProt P07949, Y791F) (P07949 29-1114 Y791F): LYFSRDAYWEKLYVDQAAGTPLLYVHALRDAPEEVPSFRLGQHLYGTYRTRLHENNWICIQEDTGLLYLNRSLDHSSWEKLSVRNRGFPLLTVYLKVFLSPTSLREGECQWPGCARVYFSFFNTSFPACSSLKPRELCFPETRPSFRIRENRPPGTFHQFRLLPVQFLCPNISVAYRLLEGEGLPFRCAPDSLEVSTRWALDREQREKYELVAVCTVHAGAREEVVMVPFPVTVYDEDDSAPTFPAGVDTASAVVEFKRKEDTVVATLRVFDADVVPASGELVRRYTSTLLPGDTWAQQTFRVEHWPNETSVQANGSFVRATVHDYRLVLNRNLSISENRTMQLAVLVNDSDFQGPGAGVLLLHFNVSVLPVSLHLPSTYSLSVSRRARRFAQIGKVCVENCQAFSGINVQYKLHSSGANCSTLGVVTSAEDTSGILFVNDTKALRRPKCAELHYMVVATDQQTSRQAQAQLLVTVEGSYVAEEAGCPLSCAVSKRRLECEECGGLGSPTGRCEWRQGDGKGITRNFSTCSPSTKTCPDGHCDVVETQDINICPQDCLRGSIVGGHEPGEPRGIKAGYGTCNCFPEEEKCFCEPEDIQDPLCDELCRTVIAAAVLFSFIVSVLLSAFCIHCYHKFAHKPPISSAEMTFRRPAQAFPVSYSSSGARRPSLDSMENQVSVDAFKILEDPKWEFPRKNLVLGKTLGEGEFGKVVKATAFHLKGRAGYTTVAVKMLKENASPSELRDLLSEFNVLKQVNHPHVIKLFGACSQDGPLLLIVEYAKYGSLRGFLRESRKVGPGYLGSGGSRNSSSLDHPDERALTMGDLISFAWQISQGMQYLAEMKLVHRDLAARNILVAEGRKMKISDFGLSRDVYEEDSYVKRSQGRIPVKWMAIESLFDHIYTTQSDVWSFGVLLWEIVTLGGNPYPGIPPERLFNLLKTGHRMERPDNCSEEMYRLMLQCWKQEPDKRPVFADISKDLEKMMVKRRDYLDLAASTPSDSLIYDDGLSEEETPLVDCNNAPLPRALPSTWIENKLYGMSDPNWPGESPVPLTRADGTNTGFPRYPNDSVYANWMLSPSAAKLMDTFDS

various kinases [4] = biological target: various kinases (Homo sapiens, UniProt Q16539); experiment: biochemical; type: biochemical
Sequence of various kinases (Homo sapiens, UniProt Q16539) (Q16539 whole entry): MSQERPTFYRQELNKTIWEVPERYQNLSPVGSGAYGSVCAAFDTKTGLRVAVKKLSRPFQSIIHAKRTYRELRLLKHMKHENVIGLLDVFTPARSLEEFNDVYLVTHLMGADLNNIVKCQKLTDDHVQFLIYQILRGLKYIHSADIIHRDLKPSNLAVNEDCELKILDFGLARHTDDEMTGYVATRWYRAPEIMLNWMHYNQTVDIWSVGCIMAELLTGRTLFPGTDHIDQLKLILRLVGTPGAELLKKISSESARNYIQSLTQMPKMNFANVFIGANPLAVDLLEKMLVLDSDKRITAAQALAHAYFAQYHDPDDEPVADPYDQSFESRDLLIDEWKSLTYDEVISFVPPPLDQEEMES

various kinases [5] = biological target: various kinases (Homo sapiens, UniProt P42685); experiment: biochemical; type: biochemical; details: FRK (PTK5)
various kinases [6] = biological target: various kinases (Homo sapiens, UniProt O15264); experiment: biochemical; type: biochemical; details: MAPK13 (p38 delta)
various kinases [7] = biological target: various kinases (Homo sapiens, UniProt P16234); experiment: biochemical; type: biochemical; details: PDGFRA (PDGFR alpha)
various kinases [8] = biological target: various kinases (Homo sapiens, UniProt O43781); experiment: biochemical; type: biochemical; details: DYRK3
various kinases [9] = biological target: various kinases (Homo sapiens, UniProt Q13554); experiment: biochemical; type: biochemical; details: CAMK2B (CaMKII beta)
various kinases [10] = biological target: various kinases (Homo sapiens, UniProt P09619); experiment: biochemical; type: biochemical; details: PDGFRB (PDGFR beta)
various kinases [11] = biological target: various kinases (Homo sapiens, UniProt P36888); experiment: biochemical; type: biochemical; details: FLT3
Sequence of various kinases (Homo sapiens, UniProt P36888) (P36888 27-993): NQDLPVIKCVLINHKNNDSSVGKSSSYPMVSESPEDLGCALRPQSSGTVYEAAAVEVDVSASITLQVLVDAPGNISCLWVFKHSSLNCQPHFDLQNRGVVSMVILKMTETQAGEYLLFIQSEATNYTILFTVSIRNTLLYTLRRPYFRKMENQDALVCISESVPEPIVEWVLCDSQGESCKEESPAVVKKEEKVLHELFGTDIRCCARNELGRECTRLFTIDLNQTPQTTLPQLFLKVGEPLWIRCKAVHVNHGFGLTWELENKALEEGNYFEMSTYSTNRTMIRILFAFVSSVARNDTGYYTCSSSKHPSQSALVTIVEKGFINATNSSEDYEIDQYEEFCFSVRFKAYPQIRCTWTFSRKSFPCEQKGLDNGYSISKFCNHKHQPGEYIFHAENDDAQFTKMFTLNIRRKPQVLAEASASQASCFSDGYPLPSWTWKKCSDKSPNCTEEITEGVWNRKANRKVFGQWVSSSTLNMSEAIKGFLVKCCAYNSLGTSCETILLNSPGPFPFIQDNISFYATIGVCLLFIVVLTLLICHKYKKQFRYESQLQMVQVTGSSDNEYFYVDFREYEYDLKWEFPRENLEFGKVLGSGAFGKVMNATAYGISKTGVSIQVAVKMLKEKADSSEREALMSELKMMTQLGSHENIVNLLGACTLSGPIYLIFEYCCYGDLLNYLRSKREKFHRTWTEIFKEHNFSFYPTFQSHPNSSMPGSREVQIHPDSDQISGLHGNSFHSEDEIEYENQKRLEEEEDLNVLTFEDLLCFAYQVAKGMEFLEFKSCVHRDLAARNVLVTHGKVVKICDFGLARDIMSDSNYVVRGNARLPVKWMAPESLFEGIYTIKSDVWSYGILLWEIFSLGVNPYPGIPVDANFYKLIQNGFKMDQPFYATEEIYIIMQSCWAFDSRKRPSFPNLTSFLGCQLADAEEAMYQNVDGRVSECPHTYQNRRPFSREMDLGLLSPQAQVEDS

various kinases [12] = biological target: various kinases (Homo sapiens, UniProt Q9UBS0); experiment: biochemical; type: biochemical; details: kinase RPS6KB2 (p70S6Kb); ZLYTE
Sequence of various kinases (Homo sapiens, UniProt Q9UBS0) (Q9UBS0 whole entry): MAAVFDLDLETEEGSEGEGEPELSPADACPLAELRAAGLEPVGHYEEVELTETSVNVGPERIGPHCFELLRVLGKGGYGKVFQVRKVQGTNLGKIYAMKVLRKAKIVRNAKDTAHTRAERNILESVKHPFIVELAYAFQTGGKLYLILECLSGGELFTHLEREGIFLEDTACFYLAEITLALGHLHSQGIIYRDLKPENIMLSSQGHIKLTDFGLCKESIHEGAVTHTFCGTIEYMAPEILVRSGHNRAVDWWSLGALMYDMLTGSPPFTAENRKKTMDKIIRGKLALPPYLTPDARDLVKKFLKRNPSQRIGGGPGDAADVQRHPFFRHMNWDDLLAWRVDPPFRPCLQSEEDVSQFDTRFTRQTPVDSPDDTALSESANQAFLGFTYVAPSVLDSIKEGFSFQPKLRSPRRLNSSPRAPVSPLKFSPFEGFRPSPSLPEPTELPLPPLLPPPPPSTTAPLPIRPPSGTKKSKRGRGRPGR

various kinases [13] = biological target: various kinases (Homo sapiens, UniProt P00533, C797S/L858R/T790M); experiment: biochemical; type: biochemical; details: EGFR (ErbB1) T790M C797S L858R
various kinases [14] = biological target: various kinases (Homo sapiens, UniProt Q9BUB5); experiment: biochemical; type: biochemical; details: MKNK1 (MNK1)
Sequence of various kinases (Homo sapiens, UniProt Q9BUB5) (Q9BUB5 whole entry): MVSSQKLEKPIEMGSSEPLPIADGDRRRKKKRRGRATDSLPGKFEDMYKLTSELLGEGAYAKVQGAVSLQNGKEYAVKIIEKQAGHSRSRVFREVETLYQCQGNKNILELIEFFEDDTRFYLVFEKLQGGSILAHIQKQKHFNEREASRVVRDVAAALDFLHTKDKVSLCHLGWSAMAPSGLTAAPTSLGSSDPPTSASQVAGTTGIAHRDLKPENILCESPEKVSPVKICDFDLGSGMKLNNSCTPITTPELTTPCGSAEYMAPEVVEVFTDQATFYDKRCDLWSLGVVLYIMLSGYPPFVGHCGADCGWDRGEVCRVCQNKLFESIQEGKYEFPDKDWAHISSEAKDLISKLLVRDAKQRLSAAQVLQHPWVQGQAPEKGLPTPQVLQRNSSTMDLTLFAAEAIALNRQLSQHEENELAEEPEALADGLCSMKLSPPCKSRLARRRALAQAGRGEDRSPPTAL

various kinases [15] = biological target: various kinases (Homo sapiens, UniProt P08069); experiment: biochemical; type: biochemical; details: IGF1R
various kinases [16] = biological target: various kinases (Homo sapiens, UniProt Q9UQM7); experiment: biochemical; type: biochemical; details: CAMK2A (CaMKII alpha)
various kinases [17] = biological target: various kinases (Homo sapiens, UniProt P08581, M1250T); experiment: biochemical; type: biochemical; details: MET M1250T
various kinases [18] = biological target: various kinases (Homo sapiens, UniProt P48730); experiment: biochemical; type: biochemical; details: CSNK1D (CK1 delta)
Sequence of various kinases (Homo sapiens, UniProt P48730) (P48730 whole entry): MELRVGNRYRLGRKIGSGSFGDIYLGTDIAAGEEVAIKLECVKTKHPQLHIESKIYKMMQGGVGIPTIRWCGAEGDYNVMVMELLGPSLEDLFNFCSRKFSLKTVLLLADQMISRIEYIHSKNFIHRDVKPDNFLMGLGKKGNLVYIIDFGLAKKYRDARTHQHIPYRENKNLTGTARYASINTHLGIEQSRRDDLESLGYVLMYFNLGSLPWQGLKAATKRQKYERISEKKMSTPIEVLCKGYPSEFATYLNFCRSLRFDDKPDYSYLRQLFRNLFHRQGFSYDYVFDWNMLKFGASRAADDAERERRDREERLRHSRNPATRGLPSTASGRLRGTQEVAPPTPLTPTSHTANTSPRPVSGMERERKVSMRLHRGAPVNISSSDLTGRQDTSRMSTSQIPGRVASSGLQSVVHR

various kinases [19] = biological target: various kinases (Homo sapiens, UniProt P00533, L858R); experiment: biochemical; type: biochemical; details: EGFR (ErbB1) L858R
various kinases [20] = biological target: various kinases (Homo sapiens, UniProt P00533, T790M); experiment: biochemical; type: biochemical; details: EGFR (ErbB1) T790M
various kinases [21] = biological target: various kinases (Homo sapiens, UniProt P08581); experiment: biochemical; type: biochemical; details: MET (cMet)
various kinases [22] = biological target: various kinases (Homo sapiens, UniProt Q9Y243); experiment: biochemical; type: biochemical; details: AKT3 (PKB gamma)
Sequence of various kinases (Homo sapiens, UniProt Q9Y243) (Q9Y243 whole entry): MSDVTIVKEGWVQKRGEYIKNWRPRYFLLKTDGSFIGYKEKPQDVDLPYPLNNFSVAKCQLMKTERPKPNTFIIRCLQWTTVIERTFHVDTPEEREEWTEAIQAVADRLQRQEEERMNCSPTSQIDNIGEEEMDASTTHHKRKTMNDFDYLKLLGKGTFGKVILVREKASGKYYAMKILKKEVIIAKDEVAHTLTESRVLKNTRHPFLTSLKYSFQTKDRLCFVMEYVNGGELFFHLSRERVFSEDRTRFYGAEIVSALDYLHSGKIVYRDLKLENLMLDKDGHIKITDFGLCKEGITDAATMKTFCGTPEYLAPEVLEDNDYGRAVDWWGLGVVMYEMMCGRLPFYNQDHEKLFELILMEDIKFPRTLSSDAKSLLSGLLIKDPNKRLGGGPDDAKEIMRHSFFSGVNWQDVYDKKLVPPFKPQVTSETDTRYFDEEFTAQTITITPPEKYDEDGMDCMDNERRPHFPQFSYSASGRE

various kinases [23] = biological target: various kinases (Homo sapiens, UniProt P00519, G250E); experiment: biochemical; type: biochemical; details: ABL1 G250E
various kinases [24] = biological target: various kinases (Homo sapiens, UniProt Q96RG2); experiment: biochemical; type: biochemical; details: PASK
various kinases [25] = biological target: various kinases (Homo sapiens, UniProt Q9UK32); experiment: biochemical; type: biochemical; details: kinase RPS6KA6 (RSK4); ZLYTE
Sequence of various kinases (Homo sapiens, UniProt Q9UK32) (Q9UK32 whole entry): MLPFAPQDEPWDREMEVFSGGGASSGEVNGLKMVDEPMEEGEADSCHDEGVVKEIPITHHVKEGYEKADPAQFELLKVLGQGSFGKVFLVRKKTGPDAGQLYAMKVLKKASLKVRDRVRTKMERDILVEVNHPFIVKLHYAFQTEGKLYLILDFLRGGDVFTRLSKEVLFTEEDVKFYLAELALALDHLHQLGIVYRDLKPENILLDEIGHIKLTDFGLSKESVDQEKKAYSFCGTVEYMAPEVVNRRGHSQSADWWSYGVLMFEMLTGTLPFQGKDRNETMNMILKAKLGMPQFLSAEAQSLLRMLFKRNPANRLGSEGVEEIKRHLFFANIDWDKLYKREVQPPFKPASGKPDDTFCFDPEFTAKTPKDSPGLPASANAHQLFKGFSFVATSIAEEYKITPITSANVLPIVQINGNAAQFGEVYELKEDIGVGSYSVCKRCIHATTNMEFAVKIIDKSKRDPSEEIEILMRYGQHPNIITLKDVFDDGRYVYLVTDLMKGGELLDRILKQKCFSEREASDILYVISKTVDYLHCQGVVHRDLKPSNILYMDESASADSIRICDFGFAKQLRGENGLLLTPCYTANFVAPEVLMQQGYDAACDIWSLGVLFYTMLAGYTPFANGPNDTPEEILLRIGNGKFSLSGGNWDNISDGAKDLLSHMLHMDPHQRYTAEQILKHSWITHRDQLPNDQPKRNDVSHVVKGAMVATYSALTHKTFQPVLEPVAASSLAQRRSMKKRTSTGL

various kinases [26] = biological target: various kinases (Homo sapiens, UniProt Q96PY6); experiment: biochemical; type: biochemical; details: NEK1
various kinases [27] = biological target: various kinases (Homo sapiens, UniProt P08581, Y1235D); experiment: biochemical; type: biochemical; details: MET (cMet) Y1235D
D283 cells = experiment: Colony formation assay, D283; type: cell-based, human; details: 50nM
Protocol: For proliferation assay DAOY was plated with 5 x 10^4 cells per well and D283 was plated with 5 x 10^5 cells per well.

[28] = tested on: G401, BT-12, BT-16, DAOY and D283 cell lines; experiment: Immunofluorescence for gamma-tubulin (centriole number), other RT and MB lines; type: cell-based, human
Protocol: The cells were then blocked in blocking buffer (5% BSA (Jackson Immuno Research Laboratories Inc., USA) in PBST) for 1 hour at RT. The primary antibody ([…] 1:500, Sigma, USA) diluted in 1% BSA in PBST was then added and incubated at 4°C overnight. Then, the cells were washed with 1X PBS thrice. Secondary antibody (Anti-Rabbit IgG (H+L) F (ab’) 2, 1:500, Sigma, USA) diluted in 1% BSA in PBST was added and incubated at RT for 2 hours. Three time washes with 1X PBS were performed. Then, 1mL of DAPI (Thermo Fisher Scientific, USA) in PBS (0.5μl of DAPI in 10 ml PBS) was added to the cells and incubated for 10 min at RT. Finally, 3 time washes with 1X PBS were performed and slides were mounted using Mounting Medium (Thermo Fisher Scientific, USA).

## COc1ccc2c(c1)[C@]1(C[C@H]1c1ccc3c(/C=C/c4ccc(CN5C[C@@H](C)O[C@@H](C)C5)cc4)n[nH]c3c1)C(=O)N2 [CFI-400945]
[1]
  PLK4 expression (qPCR) vs control: time dependent decrease
Various kinases [2]
  % Inhibition Average: 11%
  % Inhibition Duplicate #1: 11%
  % Inhibition Duplicate #2: 11%
Various kinases [3]
  % Inhibition Average: 14%
  % Inhibition Duplicate #1: 13%
  % Inhibition Duplicate #2: 14%
Various kinases [4]; MAPK14 (p38 alpha)
  % Inhibition: 8% and 0%
Various kinases [4]; MAPK14 (p38 alpha) Direct
  % Inhibition: 11%
Various kinases [5]
  % Inhibition: 8% and 7%
Various kinases [6]
  % Inhibition: 1% and 4%
Various kinases [7]
  % Inhibition: 3% and 2%
Various kinases [8]
  % Inhibition: 9% and 5%
Various kinases [9]
  % Inhibition: 13% and 14%
Various kinases [10]
  % Inhibition: 3% and 4%
Various kinases [11]
  % Inhibition: 74%
  pIC50: 7.22
Various kinases [12]
  % Inhibition Average: 5%
  % Inhibition Duplicate #1: 5%
  % Inhibition Duplicate #2: 4%
Various kinases [13]
  % Inhibition: 8% and 5%
Various kinases [14]
  % Inhibition: 6% and 1%
Various kinases [15]
  % Inhibition: 8%
Various kinases [16]
  % Inhibition: -3% and -1%
Various kinases [17]
  % Inhibition: 11%
Various kinases [18]
  % Inhibition: -2% and 3%
Various kinases [19]
  % Inhibition: 1% and 2%
Various kinases [20]
  % Inhibition: 3%
Various kinases [21]
  % Inhibition: 16% and 14%
Various kinases [22]
  % Inhibition: 3% and 4%
Various kinases [23]
  % Inhibition: 45% and 42%
Various kinases [24]
  % Inhibition: 7% and 2%
Various kinases [25]
  % Inhibition Average: 4%
  % Inhibition Duplicate #1: 6%
  % Inhibition Duplicate #2: 3%
Various kinases [26]
  % Inhibition: 7% and 2%
Various kinases [27]
  % Inhibition: 5% and 6%
D283 cells
  colony formation: Complete inhibition
[28]; 100nM
  centrioles' number: increase
[28]; 500nM
  centrioles' number: significant decrease
